According to article PMC9315260, “Diarylamine-Guided Carboxamide Derivatives: Synthesis, Biological Evaluation, and Potential Mechanism of Action” (Frontiers in Chemistry, 2022):
“Also recorded” adds a separate entry of the source.

Assays:
[1] = system: SGC-7901 (human gastric cancer cell line); experiment: MTT in vitro cytotoxicity assay, SGC-7901; format: cell-based; settings: for IC50: mean ± S.D.; for inhibition at 100 µM: SGC-7901, at 100 µM, read-out: Cell growth inhibition (%) SGC-7901
Description: (§1) The lead molecules A2 and all newly prepared diarylamine derivatives B1-13 and C1-11 were evaluated for their in vitro cytotoxic effects against SGC-7901, A875, HepG2 and MARC145 cell lines by the classical MTT [3-(4,5-dimethylthiazol-2-yl)-2,5-diphenyl tetrazolium bromide] assay ([Alley et al., 1988]; [Ke et al., 2012]; [Shi et al., 2012]; [Yu et al., 2015]; [Ke et al., 2019]; [Xu et al., 2019]; [Huang et al., 2021]) using 5-FU (5-Fluorouracil) as a control.
(§2) The cytotoxicity of target compounds was determined with MTT assay ([Alley et al., 1988]; [Ke et al., 2012]; [Shi et al., 2012]; [Yu et al., 2015]; [Ke et al., 2019]; [Xu et al., 2019]; [Huang et al., 2021]). SGC-7901, A875, HepG2 and MARC145 cell lines were obtained from Hubei Biopesticide Engineering Research Centre. All data of the experiment were analyzed with SPSS software, and all assay were performed in triplicate on three independent experiments, and measurement data were expressed as the mean ± S.D.
(§3) The in vitro cytotoxicity of the synthesized compounds against different cell lines (SGC-7901, A875, HepG2 and MARC145) was measured with MTT assay. All the data of the experiment were analyzed with SPSS software, and the 50% inhibitory concentrations (IC50) of each compound for the different cell lines were determined. A control was run for each test, and all assays were performed in triplicate on three independent experiments, and measurement data were expressed as the mean ± S.D.

[2] = MTT in vitro cytotoxicity assay, MARC145; format: cell-based, African green monkey; settings: African green monkey, MARC145 cells (kidney cell line, subclone of MA-104), MTT, mean ± S.D.
Description: as §1, §2, §3

[3] = system: A875 (human melanoma cell line); experiment: MTT in vitro cytotoxicity assay, A875; format: cell-based; settings: for IC50: mean ± S.D.; for inhibition at 100 µM: A875, at 100 µM, read-out: Cell growth inhibition (%) A875
Description: as §1, §2, §3

[4] = system: HepG2 (human hepatocellular liver carcinoma cell line); experiment: MTT in vitro cytotoxicity assay, HepG2; format: cell-based; settings: for IC50: mean ± S.D.; for inhibition at 100 µM: HepG2, at 100 µM, read-out: Cell growth inhibition (%) HepG2
Description: as §1, §2, §3

[5] = system: MARC145 (subclone of African green monkey kidney cell line MA-104); experiment: MTT in vitro cytotoxicity assay, MARC145; format: cell-based; settings: Chlorocebus sabaeus, MARC145; at 100 µM; read-out: Cell growth inhibition (%) MARC145
Description: as §1, §2, §3

[6] = system: SGC-7901, A875, HepG2 and MARC145 cell lines; experiment: MTT in vitro cytotoxicity assay, statements over the whole cell panel; format: cell-based
Description: as §1, §2, §3

| Compound | IC50 ([1]; SGC-7901, Table 1, MTT) [µM] | IC50 ([2]; Table 1) [µM] | IC50 ([3]; A875, Table 1, MTT) [µM] | melting point [°C] | IC50 ([4]; HepG2, Table 1, MTT) [µM] | IC50 ([1]; SGC-7901, Table 3, MTT) [µM] | inhibition at 100 µM [1] [%] | inhibition at 100 µM [5] [%] | IC50 ([2]; Table 3) [µM] | IC50 ([3]; A875, Table 3, MTT) [µM] | inhibition at 100 µM [3] [%] | IC50 ([4]; HepG2, Table 3, MTT) [µM] | inhibition at 100 µM [4] [%] | cytotoxic effect / inhibition activity in words ([6]; IC50-based judgement, compared with 5-FU) | dose-response analysis of cell growth inhibition, in words ([6]; SGC-7901, A875, HepG2, MARC145) | inhibition activity in preliminary screening, in words ([6]; at 100 µM, inhibition rate higher than control 5-FU) |
| --- | --- | --- | --- | --- | --- | --- | --- | --- | --- | --- | --- | --- | --- | --- | --- | --- |
| NC(=O)c1c(Cl)cccc1NC(=O)c1ccccc1Nc1cccc(C(F)(F)F)c1 [B11, N-(2-Carbamoyl-3-chlorophenyl)-2-((3-(trifluoromethyl)phenyl)amino)benzamide] | > 92 | > 92 | > 92 | 194 to 195 | > 92 | – | – | – | – | – | – | – | – | – | – | – |
| CNC(=O)c1c(Cl)cccc1NC(=O)c1ccccc1Nc1cccc(C(F)(F)F)c1 [B12, 2-Chloro-N-methyl-6-(2-((3-(trifluoromethyl)phenyl)amino)benzamido)benzamide] | > 89 | > 89 | > 89 | 178 to 179 | > 89 | – | – | – | – | – | – | – | – | – | – | – |
| CNC(=O)c1cc(Cl)cc(Cl)c1NC(=O)c1ccccc1Nc1cccc(C(F)(F)F)c1 [B13, 3,5-Dichloro-N-methyl-2-(2-((3-(trifluoromethyl)phenyl)amino)benzamido)benzamide] | > 83 | > 83 | > 83 | 180 to 181 | > 83 | – | – | – | – | – | – | – | – | – | – | – |
| CC(C)c1ccc(NC(=O)c2ccccc2Nc2cccc(C(F)(F)F)c2)cc1 [C1, N-(4-Isopropylphenyl)-2-((3-(trifluoromethyl)phenyl)amino)benzamide] | – | – | – | 74 to 75 | – | 47 ± 9.74 | 72.3 ± 3.1 | 7.5 ± 2.3 | > 100 | > 100 | 43.1 ± 2 | > 100 | 42.7 ± 3.1 | – | – | – |
| CC(C)c1ccc(NC(=O)c2cccnc2Nc2cccc(C(F)(F)F)c2)cc1 [C2, N-(4-Isopropylphenyl)-2-((3-(trifluoromethyl)phenyl)amino)nicotinamide] | – | – | – | 161 to 162 | – | > 100 | 26.9 ± 1.8 | 15.8 ± 1.9 | > 100 | > 100 | 42 ± 2.5 | > 100 | 13.1 ± 2.3 | – | – | – |
| O=C(Nc1ccccc1C(F)(F)F)c1ccccc1Nc1cccc(C(F)(F)F)c1 [C3, N-(2-(Trifluoromethyl)phenyl)-2-((3-(trifluoromethyl)phenyl)amino)benzamide] | – | – | – | 82 to 83 | – | 29.7 ± 4.03 | 78.6 ± 2.9 | 23.5 ± 2.1 | > 94 | > 94 | 56.4 ± 2.5 | 24.2 ± 3.21 | 88.5 ± 3.2 | – | – | – |
| O=C(Nc1ccccc1C(F)(F)F)c1cccnc1Nc1cccc(C(F)(F)F)c1 [C4, N-(2-(Trifluoromethyl)phenyl)-2-((3-(trifluoromethyl)phenyl)amino)nicotinamide] | – | – | – | 139 to 140 | – | > 94 | 4.5 ± 0.4 | 0 | > 94 | > 94 | 5.2 ± 1.5 | > 94 | 3.1 ± 1.2 | – | – | – |
| O=C(Nc1cccc(C(F)(F)F)c1)c1ccccc1Nc1cccc(C(F)(F)F)c1 [C5, N-(3-(Trifluoromethyl)phenyl)-2-((3-(trifluoromethyl)phenyl)amino)benzamide] | – | – | – | 75 to 76 | – | 6.39 ± 1.53 | 89.6 ± 5.4 | 92.3 ± 4.1 | 9.57 ± 2.15 | 8.54 ± 2.17 | 93.7 ± 3.2 | 10.1 ± 0.8 | 88.9 ± 1.9 | good cytotoxic effect; also recorded: higher inhibition activities compared to the control 5-FU | significant concentration dependence | good inhibition activity |
| O=C(Nc1ccc(C(F)(F)F)cc1)c1cccnc1Nc1cccc(C(F)(F)F)c1 [C8, N-(4-(Trifluoromethyl)phenyl)-2-((3-(trifluoromethyl)phenyl)amino)nicotinamide] | – | – | – | – | – | > 94 | 51.2 ± 3.5 | 65.8 ± 2.6 | 57.7 ± 8.87 | 55.6 ± 6.73 | 56.5 ± 3.1 | > 94 | 42.4 ± 2.6 | – | – | – |
| O=C(Nc1ccccn1)c1ccccc1Nc1cccc(C(F)(F)F)c1 [C9, N-(Pyridin-2-yl)-2-((3-(trifluoromethyl)phenyl)amino)benzamide] | – | – | – | 65 to 66 | – | 42 ± 7.95 | 80.5 ± 2.5 | 56.5 ± 3.3 | 64.7 ± 3.02 | > 112 | 30.3 ± 4.1 | 64.2 ± 3.89 | 75 ± 2.7 | – | – | – |
